Experimental data taken from patent publication US8809358B2, “Use of IκB-kinase inhibitors in pain therapy” (Sanofi-Aventis Deutschland GmbH, priority 2002, dated 2014).

Legend:
[1] = system: Kaolin/carrageenan-induced knee joint inflammation; assay: Kaolin/carrageenan-induced knee joint inflammation in the rat: reaction of spinal neurons during pressure stimulation of the knee; assay type: in vivo
From the text: • Zymosan-induced paw inflammation in the rat; • Parameter: paw withdrawal time or paw withdrawal threshold during thermal or mechanical stimulation of the hind paw. 2nd Model: • Kaolin/carrageenan-induced knee joint inflammation in the rat; • Parameter: reaction of spinal neurons during pressure stimulation of the knee. Model 1
Experimental implementation: In rats which were under sodium thiopental anesthesia, the spinal canal was opened and spinal medullary neurons which processed the “pain impulses” from the knee-joint were identified. Following identification, a long-term recording, in which the activity of the nerve cell was recorded before and during the development of an acute inflammation in the knee-joint, was carried out. For this, the responses to non-noxious and noxious stimulation at the knee-joint were measured in a control period before inducing the inflammation and for several hours after inducing the inflammation.
The acute inflammation was induced by the intraarticular injection of a suspension (about 150 μl) of kaolin and carrageenan. In controlled experiments, only the vehicle was applied to the spinal medullary surface in order to represent the development of the hyperexcitability under control conditions. As a rule, this development of hyperexcitability took place within 2 to 4 hours and was expressed in a marked increase in the responses to non-noxious and noxious stimulation of the knee-joint (Tab. 3). […] The responses of the cell to non-noxious and noxious stimulation were then subsequently monitored as in the control experiments.

IκB-kinase = biological target: T1, IκB-kinase (Homo sapiens, UniProt O14920+O15111); assay: IκB-Kinase ELISA; assay type: biochemical; settings: kinase complex from HeLa S3 cell extract, activated with MEKK1Δ
T1 construct: endogenous in cells; host or cells: HeLa S3 cell extract S100; ammonium sulfate cut and Superose-6 gel filtration (670 kDa fractions)
T1 sequence (O14920 whole entry): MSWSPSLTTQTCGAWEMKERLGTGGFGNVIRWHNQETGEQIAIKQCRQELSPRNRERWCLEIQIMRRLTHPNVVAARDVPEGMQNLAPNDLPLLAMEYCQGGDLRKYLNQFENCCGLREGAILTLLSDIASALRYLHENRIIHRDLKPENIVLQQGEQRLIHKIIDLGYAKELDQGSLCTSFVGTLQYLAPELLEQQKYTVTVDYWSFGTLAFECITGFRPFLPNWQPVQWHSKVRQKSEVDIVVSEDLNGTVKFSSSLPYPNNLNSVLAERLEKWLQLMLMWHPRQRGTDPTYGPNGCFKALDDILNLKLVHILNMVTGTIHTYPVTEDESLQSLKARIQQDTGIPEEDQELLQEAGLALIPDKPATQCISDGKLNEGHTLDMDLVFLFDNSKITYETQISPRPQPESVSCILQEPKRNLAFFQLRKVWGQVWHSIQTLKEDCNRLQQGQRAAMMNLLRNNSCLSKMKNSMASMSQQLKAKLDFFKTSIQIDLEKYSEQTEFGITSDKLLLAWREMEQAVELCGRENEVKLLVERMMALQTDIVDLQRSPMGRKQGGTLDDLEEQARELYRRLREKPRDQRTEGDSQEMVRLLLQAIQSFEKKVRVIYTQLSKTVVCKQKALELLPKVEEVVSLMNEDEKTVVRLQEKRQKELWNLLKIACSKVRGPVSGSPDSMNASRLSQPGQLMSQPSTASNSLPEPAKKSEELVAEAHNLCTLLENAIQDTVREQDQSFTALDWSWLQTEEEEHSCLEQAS
T1 sequence (O15111 whole entry): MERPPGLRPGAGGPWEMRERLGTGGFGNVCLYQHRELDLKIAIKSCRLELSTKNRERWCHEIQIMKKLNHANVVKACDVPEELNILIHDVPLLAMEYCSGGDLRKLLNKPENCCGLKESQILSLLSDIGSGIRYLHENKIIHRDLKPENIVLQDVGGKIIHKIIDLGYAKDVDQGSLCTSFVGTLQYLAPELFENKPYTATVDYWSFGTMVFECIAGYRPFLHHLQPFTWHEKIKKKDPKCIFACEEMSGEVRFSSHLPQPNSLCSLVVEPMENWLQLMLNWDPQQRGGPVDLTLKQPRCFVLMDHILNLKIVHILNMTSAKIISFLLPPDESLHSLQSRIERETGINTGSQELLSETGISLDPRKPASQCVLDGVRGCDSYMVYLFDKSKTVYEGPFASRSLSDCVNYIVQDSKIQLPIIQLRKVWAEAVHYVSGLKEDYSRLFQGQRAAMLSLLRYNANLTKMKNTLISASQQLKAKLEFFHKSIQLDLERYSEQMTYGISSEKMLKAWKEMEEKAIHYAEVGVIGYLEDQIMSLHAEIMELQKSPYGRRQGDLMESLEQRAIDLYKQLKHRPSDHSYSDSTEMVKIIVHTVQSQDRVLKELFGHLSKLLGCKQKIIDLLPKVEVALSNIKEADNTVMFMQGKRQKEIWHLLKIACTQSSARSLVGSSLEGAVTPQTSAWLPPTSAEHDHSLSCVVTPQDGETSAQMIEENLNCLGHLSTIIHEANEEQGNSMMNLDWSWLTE
T1 sequence (Q9Y6K9 whole entry partner): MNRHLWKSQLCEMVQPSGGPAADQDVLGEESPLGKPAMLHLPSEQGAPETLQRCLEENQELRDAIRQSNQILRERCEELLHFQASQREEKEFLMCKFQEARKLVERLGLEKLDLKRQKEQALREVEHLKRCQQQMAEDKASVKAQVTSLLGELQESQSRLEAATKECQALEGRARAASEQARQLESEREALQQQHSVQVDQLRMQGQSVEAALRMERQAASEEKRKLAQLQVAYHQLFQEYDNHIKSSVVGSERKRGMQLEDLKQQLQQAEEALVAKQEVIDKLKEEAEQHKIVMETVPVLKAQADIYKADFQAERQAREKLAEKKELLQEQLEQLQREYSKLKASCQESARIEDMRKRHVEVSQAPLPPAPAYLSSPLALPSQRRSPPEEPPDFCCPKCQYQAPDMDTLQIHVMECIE

[2] = system: Zymosan-induced paw inflammation; assay: Zymosan-induced paw inflammation in the mouse: paw withdrawal time during thermal stimulation of the hind paw; assay type: in vivo; settings: thermal hyperalgesia AUC, seven days; 200 mg/kg twice daily
Protocol: • Zymosan-induced paw inflammation in the mouse; • Parameter: paw withdrawal time during thermal stimulation of the hind paw. Experimental implementation: In short-term anesthesia using isoflurane, 25 μl of a suspension containing 50 mg of zymosan/ml were injected into the right hind paw of the experimental animal. The development of a hyperalgesia was then determined quantitatively as follows: Determining the Paw Withdrawal Time During Thermal Stimulation (Hargreave's Test; See Above). The experimental animal was placed in a transparent plastic chamber having a glass floor. As soon as the experimental animal was no longer moving, following the reconnaissance phase (about 5 min), an infrared light source was positioned directly below the hind paw to be stimulated and switched on. The lamp emitted focused infrared light of increasing intensity such that the skin temperature of the hind paw increased almost linearly. As soon as the animal withdrew the paw, the lamp switched itself off. The temperature of the paw at the time it is withdrawn has just become unpleasant for the animal; this is referred to as the thermal pain threshold. Shortly before the zymosan injection, and for from 7 to 14 days after the injection, the thermal pain threshold was determined once daily on the right hind paw and left hind paw. Subsequently, the integral of the area which was formed from the curves for the paw withdrawal times of the inflamed paw and the noninflamed paw (AUC, area between the curves, see tables 5 and 6) was determined as a measure of the hyperalgesia. The larger this value is, the more pronounced is the hyperalgesia, and the smaller the value is in animals which are being given the substance, the greater is the success of the therapy. […] A very high dose of paracetamol was likewise administered twice daily to another group of animals which was taken through the experiment in parallel. […] The scheme for zymosan injection and dosing was identical to that in the previously described study. The only difference was that this additional study ran for 14 days.

[3] = system: Zymosan-induced paw inflammation; assay: Zymosan-induced paw inflammation in the mouse: spontaneous running performance in a running wheel; assay type: in vivo, C57/B6 mice
Protocol: 4th Model: • Zymosan-induced paw inflammation in the mouse; • Parameter: spontaneous running performance in a running wheel. In the cage in which it is kept, the experimental animal has access to a running wheel, the revolutions of which are recorded electronically. During the night hours, the C57/B6 mice use the running wheel voluntarily and, after a one-week phase of acclimatization, cover on average 4 100 meters/night. After zymosan has been injected, the distance run each night is reduced. This reduction in running performance is a valid parameter for a restriction in function which is due to inflammation pain. Experimental implementation: After an acclimatization phase of one week, the distance run/24 hours was measured in order to determine the base line. 25 μl of a suspension containing 50 mg of zymosan/ml were then injected into the right hind paw of the experimental animal during short-term anesthesia using isoflurane. The distance run/24 hours was then determined during the following seven days. In the analysis, the area under the curve for the values for the distance run was determined (AUC, tab. 7): the lower the AUC, the lower was the running performance during the week following injection of the zymosan. […] The substance was administered for the first time on day 1 after injection of the zymosan.

Compound: CNc1nccc(-c2nc3cc(C(=O)N[C@@H](CN(c4ccccc4)c4ccccc4)C(N)=O)ccc3[nH]2)n1 [Compound 22, N—((S)-1-carbamoyl-2-diphenylaminoethyl)-2-(2-methylaminopyrimidin-4-yl)-1H-benzimidazole-5-carboxamide]
- Neuronal responses before and during knee-joint inflammation (imp/15 s) ([1]; Experiment 1, Non-noxious stimulation at the knee-joint, 30-60 min after K/C injection): −34.1 imp/15 s
- Neuronal responses before and during knee-joint inflammation (imp/15 s) ([1]; Experiment 1, Non-noxious stimulation at the knee-joint, 60-120 min after K/C injection): −37.2 imp/15 s
- Neuronal responses before and during knee-joint inflammation (imp/15 s) ([1]; Experiment 1, Non-noxious stimulation at the knee-joint, 120-180 min after K/C injection): −32.1 imp/15 s
- Neuronal responses before and during knee-joint inflammation (imp/15 s) ([1]; Experiment 1, Non-noxious stimulation at the knee-joint, Baseline): 0 imp/15 s
- Neuronal responses before and during knee-joint inflammation (imp/15 s) ([1]; Experiment 1, Noxious stimulation at the knee-joint, 30-60 min after K/C injection): −109.1 imp/15 s
- Neuronal responses before and during knee-joint inflammation (imp/15 s) ([1]; Experiment 1, Noxious stimulation at the knee-joint, 60-120 min after K/C injection): −101.1 imp/15 s
- Neuronal responses before and during knee-joint inflammation (imp/15 s) ([1]; Experiment 1, Noxious stimulation at the knee-joint, 120-180 min after K/C injection): −37.8 imp/15 s
- Neuronal responses before and during knee-joint inflammation (imp/15 s) ([1]; Experiment 1, Noxious stimulation at the knee-joint, Baseline): 0 imp/15 s
- Neuronal responses before and during knee-joint inflammation (imp/15 s) ([1]; Experiment 2, Non-noxious stimulation at the knee-joint, 30-60 min after K/C injection): −30.6 imp/15 s
- Neuronal responses before and during knee-joint inflammation (imp/15 s) ([1]; Experiment 2, Non-noxious stimulation at the knee-joint, 120-180 min after K/C injection): 50.3 imp/15 s
- Neuronal responses before and during knee-joint inflammation (imp/15 s) ([1]; Experiment 2, Non-noxious stimulation at the knee-joint, 180-240 min after K/C injection): 68.7 imp/15 s
- Neuronal responses before and during knee-joint inflammation (imp/15 s) ([1]; Experiment 2, Non-noxious stimulation at the knee-joint, Baseline): 0 imp/15 s
- Neuronal responses before and during knee-joint inflammation (imp/15 s) ([1]; Experiment 2, Noxious stimulation at the knee-joint, 30-60 min after K/C injection): −9.2 imp/15 s
- Neuronal responses before and during knee-joint inflammation (imp/15 s) ([1]; Experiment 2, Noxious stimulation at the knee-joint, 120-180 min after K/C injection): 60 imp/15 s
- Neuronal responses before and during knee-joint inflammation (imp/15 s) ([1]; Experiment 2, Noxious stimulation at the knee-joint, 180-240 min after K/C injection): 96.7 imp/15 s
- Neuronal responses before and during knee-joint inflammation (imp/15 s) ([1]; Experiment 2, Noxious stimulation at the knee-joint, Baseline): 0 imp/15 s
- effect in model 2 ([1]; rat): good effect
- IC50 (IκB-kinase): 45 nM

Compound: CC(=O)Nc1ccc(O)cc1 [Paracetamol, reference compound]
- Statistical difference as compared with the vehicle [2]: yes
- distance run as compared with the vehicle group ([3]; mouse, 7 days, extremely high dose): no improvement
- Statistical difference as compared with the vehicle ([3]; running wheel AUC, seven days, 200 mg/kg twice daily): no
